# Laboratory results as given in patent EP0414895A1, “OROTATE OF $g(a)-AMINO-$g(b)-PHENYL-BUTYRIC ACID” (NAUCHNO-PROIZVODSTVENNOE OBIEDINENIE "BIOLAR", priority 1989, dated 1990).
# What was measured:
# Type in all cases: in vivo
# Mäuse [1] = experiment: Hypoxia in barochamber (11000 m), survival
# Procedure: Nach einer der Methoden wurden die Mäuse in der Barokammer untergebracht, die für die Höhe von II000 m über dem Meeresspiegel gehoben wurde. Die Hebung wurde mit einer Geschwindigkeit von 50 m/s verwirklicht. Der atmosphärische Tiefdruck wurde mit Hilfe der elektrischen Vakuumpumpe geschaffen.
# Die beanspruchte Verbindung, Natriumoxybutyrat und Pyrazetam wurden 60 min vor dem Versuch enteral eingeführt. Der Schutzeffekt wurde nach der Überlebensdauer eingeschätzt. Die Angaben sind in Tabelle I0 angeführt.
# Mäuse [2] = experiment: Thresholds of emotional reactivity and aggressiveness on electric pain stimulation, mice
# Source text: Es wurde auch die emotionelle Aktivität und Aggressivität der Tiere auf dem Wege der elektrischen Schmerzreizung untersucht.
# In einer Kammer von 20 x 20 x 25 cm Ausmass, deren Boden - ein Metallgitter aus Stangen darstellt, wurde ein Paar Tiere untergebracht (männliche Mäuse) und es wurde der Wechselstrom durchgelassen. Die Spannung wurde dosenartig auf 5 V solange erhöht, bis der Strom das Piepsen (die Schwelle der emotionellen Reaktivität) und die Schlägerei der Tiere (die Schwelle der Aggressivität) auslöste. Jede Spannungsgrösse wurde innerhalb von 5 sec zweimal in einem Zeitabstand von 20 bis 50 Sekunden aufrechterhalten. Die Kontrolle des Benehmens der Tiere begann man I0 Minuten nach der Einführung der oben erwähnten Verbindungen. Die Angaben sind in Tabellen 3, 4 angeführt.
# Mäuse [3] = experiment: Motor and orientation activity in photoelectric actometer; settings: counted 60 min from 10 min after dosing
# Source text: Zur Bestimmung der sedativen Wirksamkeit wurde die motorische und Orientierungsaktivität und die motorische Fähigkeit in Versuchen an Mäusen und Ratten untersucht.
# Den Versuchstieren wurden die beanspruchte Verbindung, γ -Amino- β -phenylbuttersäurehydrochlorid und Pyrazetam eingeführt. Als Kontrolle diente die physiologische Lösung (0,9%ige NaCl-Lösung). Die Untersuchungen wurden an I0 bis I2 erwachsenen Tieren (Mäuse, Ratten) durchgeführt.
# Bei der Bestimmung der motorischen und Orientierungsaktivität wurde jede Maus in einer Einzelkamner des photoelektrischen Aktometers untergebracht. Die motorische und Orientierungsaktivität wurde nach der Zahl der Impulse bestimmt, die beim Berühren der Aktometerkontakte durch das Tier entstanden. Das Zählen der Im pulse wurde I0 min nach der intraperitonealen Einführung der genannten Verbindungen begonnen und dauerte innerhalb von 60 min. Die Angaben sind in der Tabelle I angeführt.
# Mäuse [4] = experiment: Hypoxia in hermetically closed vessel, survival; settings: closed vessel 80 cm³
# Source text: Nach der zweiten Methode wurden die Mäuse in einem hermetisch verschlossenen Gefäss von 80 cm³ Inhalt untergebracht, dabei wurde die Luft nicht abgesaugt, und es wurden keine CO₂-Sorptionsmittel zugegeben. Die Prüfverbindungen wurden I Stunde vor dem Beginn des Versuchs intraperitoneal eingeführt (siehe Tabelle II).
# Ratten [5] = experiment: Natriumäthaminal intoxication, sleep duration, rats; settings: 500 mg/kg single + Natriumäthaminal 100 mg/kg i.p.
# Procedure: Ausserdem wurde die Wirkung der beanspruchten Verbindung auf die durch Natriumäthaminal erzeugte Intoxikation untersucht. Die Versuche wurden an männlichen Mäusen und Ratten in Gruppen zu 8 bis I0 Tieren angestellt. Natriumäthaminal wurde intraperitoneal in einner Dosis von I00 mg/kg I5 min nach der enteralen Verabreichung der beanspruchten Verbindung oder der Kontrollarzneimittel eingeführt. Es wurde die einmalige und chronische Einwirkung (während I2 bis I4 Tage einmal täglich) von der neuen Verbindung, γ -Amino- β - -phenylbuttersäurehydrochlorid und Pyrazetam untersucht. Es wurde die Dauer der Seitenlage - des Schlafs der Tiere bestimmt. Die Ergebnisse dieser Untersuchung sind in Tabelle 23 (für Mäuse) und 24 (für Ratten) angeführt.
# Ratten [6] = experiment: Thresholds of emotional reactivity and aggressiveness on electric pain stimulation, rats; settings: 100,0 mg/kg
# Mäuse [7] = experiment: Phenamin-induced hypermotility in actometer; settings: 500 mg/kg + Phenamin 5 mg/kg i.p. 10 min later
# Procedure: Eis wurde die Wirkung der beanspruchten Verbindung auf den durch Phenamin ausgelöston Effekt der Veränderung der Hypermotorik untersucht. Phenamin wurde den Mäusen intraperitoneal in Dosen von 3 und 5 mg/kg I0 Minuten nach der enteralen oder intraperitonealen Einführung der beanspruchten Verbindung und des Pyrazetams eingeführt. Die Tiere wurden in der Kammer des photoelektrischen Aktometers untergebracht. Die motorische Aktivität wurde nach der Zahl der Impulse innerhalb von 60 Minuten bestimmt. Die Angaben sind in der Tabelle 6 angeführt.
# Mäuse [8] = experiment: Hemic hypoxia by intraperitoneal Natriumnitrit, survival; settings: Natriumnitrit 200 mg/kg i.p. 15 min after compound
# Procedure: Die gemische Hypoxie wurde durch die intraperitoneale und subkutane Verabreichung von Natriumnitrit in einer Dosis von 200 mg/kg den Gruppen zu I0 […] I5 min nach der Einführung der Prüfverbindungen erzeugt. Die Angaben sind in der Tabelle I2 (bei der intraperitonealen Einführung von Natriumnitrit) und Tabelle I3 (bei der subkutanen Einführung von Natriumnitrit) angeführt.
# [9] = 100,0 mg/kg enteral 60 min before
SMILES,Überlebensdauer (Mäuse [1]; [9]),"Überlebensdauer (Mäuse [1]; 500,0 mg/kg enteral 60 min before)","Überlebensdauer (Mäuse [1]; 1000,0 mg/kg enteral 60 min before)","Spannung in V, Schwelle der Agressivität (Mäuse [2]; 100 mg/kg)","Spannung in V, Schwelle der Agressivität (Mäuse [2]; 1000 mg/kg)","Spannung in V, Schwelle der emotionellen Reaktivität (Mäuse [2]; 1000 mg/kg)",Anzahl der Impulse im Aktometer (Mäuse [3]; 100 mg/kg i.p.),Anzahl der Impulse im Aktometer (Mäuse [3]; 500 mg/kg i.p.),Anzahl der Impulse im Aktometer (Mäuse [3]; 1000 mg/kg i.p.),"Überlebensdauer (Mäuse [4]; 100,0 mg/kg i.p. 1 h before)","Überlebensdauer (Mäuse [4]; 500,0 mg/kg i.p. 1 h before)","Überlebensdauer (Mäuse [4]; 1000,0 mg/kg i.p. 1 h before)",Schlafdauer (Ratten [5]),"Spannung in V, die Schwelle der emotionnellen Reaktivität (Ratten [6])",Anzahl der Impulse im Aktometer innerhalb von 60 min (Mäuse [7]),"Überlebensdauer (Mäuse [8]; 100,0 mg/kg)","Überlebensdauer (Mäuse [8]; 500,0 mg/kg)","Überlebensdauer (Mäuse [8]; 1000,0 mg/kg)","Überlebensdauer (Mäuse [1]; 200,0 mg/kg enteral 60 min before)","Überlebensdauer (Mäuse [8]; 200,0 mg/kg)"
"NC(=O)CN1CCCC1=O [Pyrazetam, I-Karbamidomethylpyrrolidon-2]","3,4±0,6 min","5,5±1,8 min","7,2±1,4 min","28,4±2,4 V","26,7±2,5 V","20,7±2,4 V",342±18,338±24,288±28,"9,6±1,2 min","11,8±2,1 min","13,6±1,8 min","204,6±21 min","25,7±0,8 V",1872±66,"26,7±2,2 min","34,2±3,6 min","38,8±4,2 min",,
O=C(O)CCCO [Natriumoxybutyrat],"7,1±2,3 min",,,,,,,,,,,,,,,"28,4±2,8 min",,,"10,1±1,9 min","43,0±2,3 min"
